Measurements published in PubChem BioAssay (NCI).
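Exposure lasted 48 hours, with cells grown in 96-well plates and compounds tested at five concentrations. TGI: total growth inhibition.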

How the values were obtained:
Test in all cases: NCI tumour cell line growth inhibition, 48 h
HT29 colon = tested on: HT29 colon
SNB-78 CNS = tested on: SNB-78 CNS
COLO 205 colon = tested on: COLO 205 colon
NCI-H460 lung = tested on: NCI-H460 lung
IGROV1 ovarian = tested on: IGROV1 ovarian
SK-MEL-28 melanoma = tested on: SK-MEL-28 melanoma
OVCAR-3 ovarian = tested on: OVCAR-3 ovarian
786-0 renal = tested on: 786-0 renal
RXF 393 renal = tested on: RXF 393 renal
DMS 273 small cell lung = tested on: DMS 273 small cell lung
DLD-1 colon = tested on: DLD-1 colon
A498 renal = tested on: A498 renal
A549 NSCLC = tested on: A549 NSCLC
U251 CNS = tested on: U251 CNS
M14 melanoma = tested on: M14 melanoma
SNB-75 CNS = tested on: SNB-75 CNS
MALME-3M melanoma = tested on: MALME-3M melanoma
SR leukemia = tested on: SR leukemia
HCC-2998 colon = tested on: HCC-2998 colon
NCI-H226 lung = tested on: NCI-H226 lung
LXFL 529 NSCLC = tested on: LXFL 529 NSCLC
HCT-15 colon = tested on: HCT-15 colon
SN12C renal = tested on: SN12C renal
OVCAR-8 ovarian = tested on: OVCAR-8 ovarian
NCI-H522 lung = tested on: NCI-H522 lung
HOP-62 NSCLC = tested on: HOP-62 NSCLC
HOP-18 NSCLC = tested on: HOP-18 NSCLC
CCRF-CEM leukemia = tested on: CCRF-CEM leukemia
NCI-H23 lung = tested on: NCI-H23 lung
M19-MEL melanoma = tested on: M19-MEL melanoma
SF-268 CNS = tested on: SF-268 CNS
TK-10 renal = tested on: TK-10 renal
RXF-631 renal = tested on: RXF-631 renal
XF 498 CNS = tested on: XF 498 CNS
HL-60(TB) leukemia = tested on: HL-60(TB) leukemia
ACHN renal = tested on: ACHN renal
OVCAR-4 ovarian = tested on: OVCAR-4 ovarian
K-562 leukemia = tested on: K-562 leukemia
UO-31 renal = tested on: UO-31 renal
LOX IMVI melanoma = tested on: LOX IMVI melanoma
KM12 colon = tested on: KM12 colon
SNB-19 CNS = tested on: SNB-19 CNS
SK-OV-3 ovarian = tested on: SK-OV-3 ovarian
OVCAR-5 ovarian = tested on: OVCAR-5 ovarian
SK-MEL-2 melanoma = tested on: SK-MEL-2 melanoma
SF-539 CNS = tested on: SF-539 CNS
UACC-257 melanoma = tested on: UACC-257 melanoma
KM20L2 colon = tested on: KM20L2 colon
SF-295 CNS = tested on: SF-295 CNS
HCT-116 colon = tested on: HCT-116 colon
EKVX NSCLC = tested on: EKVX NSCLC
SK-MEL-5 melanoma = tested on: SK-MEL-5 melanoma
SW-620 colon = tested on: SW-620 colon
MOLT-4 leukemia = tested on: MOLT-4 leukemia
DMS 114 small cell lung = tested on: DMS 114 small cell lung
HOP-92 NSCLC = tested on: HOP-92 NSCLC
CAKI-1 renal = tested on: CAKI-1 renal
RPMI-8226 leukemia = tested on: RPMI-8226 leukemia
UACC-62 melanoma = tested on: UACC-62 melanoma

Measured: TGI

COC(=O)C(CCCC1(c2ccccc2)OCCO1)C(C)=O (stereo not drawn)
not listed: DMS 114 small cell lung | HOP-92 NSCLC | CAKI-1 renal | RPMI-8226 leukemia | UACC-62 melanoma
> 100 µM: all other assays above

O=S(O)CCCCCSSCCCCSSCCCCCS(=O)O
86.6 µM: MALME-3M melanoma
not listed: SR leukemia | HCC-2998 colon | NCI-H226 lung | HL-60(TB) leukemia | HCT-116 colon
> 100 µM: all other assays above
